Like-named read-outs stand apart in the source and are kept apart here.
Key:
CMV-polymerase = CMV-polymerase (Human cytomegalovirus (strain AD169) (HHV-5) (Human herpesvirus 5), UniProt P08546); test: biochemical; conditions: read-out: CMV-polymerase Biochemical IC50
CMV = test: microbe, parasite or virus in culture; assay type: cell-based
HSV-polymerase = HSV-polymerase (Human herpesvirus 1 (strain 17) (HHV-1) (Human herpes simplex virus 1), UniProt P04293); test: biochemical
VZV Ellen strain = test: VZV qPCR assay; conditions: Human alphaherpesvirus 3, MRC5, 48 h, read-out: Cellular activity against VZV (EC50)
[1] = test system: EBV (SNU-719 cells latently infected); test: EBV qPCR assay; conditions: human gammaherpesvirus 4, 72 h, read-out: Cellular activity against EBV (EC50)
[2] = test system: KOS strain of HSV-1 virus; test: HSV-1 qPCR assay; conditions: Human alphaherpesvirus 1, 24 h, read-out: Cellular activity against HSV-1 (EC50), NN-NHDF cells, MOI 0.01, 24 hrs, qPCR
[3] = Human betaherpesvirus 5, 72 h, read-out: CMV-Luc Cellular EC50, NN-NHDF cells, MOI 1, 72 hrs
[4] = Human betaherpesvirus 5, read-out: Cellular activity against CMV (EC50), Table 18

Row | SMILES | IC50 (CMV-polymerase) | EC50 (CMV; [3]) | EC50 (CMV; [4]) | IC50 (HSV-polymerase) | EC50 (VZV Ellen strain) | EC50 [1] | EC50 [2]
1 | Cn1nc(C(=O)NCc2ccc(C#N)cc2)c2c1C(=O)N(CC1(S(=O)(=O)C(C)(CO)CO)CC1)CC2 [Example 176, N-(4-Cyanobenzyl)-6-((1-((1,3-dihydroxy-2-methylpropan-2-yl)sulfonyl)cyclopropyl)methyl)-1-methyl-7-oxo-4,5,6,7-tetrahydro-1H-pyrazolo[3,4-c]pyridine-3-carboxamide] | 2 nM | 52 nM | 52 nM | 39 nM | 74 nM | 14 nM | 95 nM
2 | CC(C)(O)Cn1nc(C(=O)NCc2ccc(C#N)cc2)c2c1C(=O)N(CC1(S(=O)(=O)C3(CO)CC3)CC1)CC2 [Example 234, N-(4-Cyanobenzyl)-1-(2-hydroxy-2-methylpropyl)-6-((1-((1-(hydroxymethyl)cyclopropyl)sulfonyl)cyclopropyl)methyl)-7-oxo-4,5,6,7-tetrahydro-1H-pyrazolo[3,4-c]pyridine-3-carboxamide] | 1 nM | 49 nM | 49 nM | – | 115 nM | 11 nM | 83 nM

From patent publication US12338220B2, “Antiviral pyrazolopiridinone compounds” (Novartis AG, priority 2019, dated 2025)
